In patent US8420311B2, “Method to block the infection by flaviviruses, molecules and uses” (Centro de Ingenieria Genetica y Biotecnologia, priority 2006, dated 2013):
Where a SMILES comes first, the peptide text is derived from it. Bridges are numbered along the chain shown (N, C = ends). Where no end group is shown, it is not given here.

How the values were obtained:
DV3 = assay type: cell-based, dengue virus; settings: for degree of reduction of the number of viral plaques, DV3: peptides 0.1 mg/ml, Vero cells
Excerpt: (§1) DIII has one of the most variable regions of the exposed surface of protein E. In fact, one of the antigenic characteristics of this domain is that the antibodies obtained against this region are predominantly serotype-specific (Roehrig J T, Bolin R A, Kelly R G (1998) Monoclonal antibody mapping of the envelope glycoprotein of the dengue 2 virus, Jamaica Virology 246:317-28). However, during the inhibition assay with different DV serotypes, the peptides display a wide-spectrum inhibitory activity, efficiently inhibiting the infection of strains of the homologous, as well as of the heterologous serotypes (table 3). It is important to notice that at the assayed concentration (0.1 mg/ml) all the peptides in all the conditions, with the exception of peptide HIII4CL for DV3, produced higher than 50% inhibition levels.

DV4 = assay type: cell-based, dengue virus; settings: peptides 0.1 mg/ml; Vero cells
Excerpt: as §1

DV2 = assay type: cell-based, dengue virus; settings: peptides 0.1 mg/ml; Vero cells
Experimental: (§2) FIG. 17. Inhibition of the infection of Vero cells with DV1 and DV2. (A) Six-well plates with a monolayer at approximately 90% confluence were incubated for 30 min. at 37° C. with dilutions of the peptides in MEM medium. A dilution of either DV1 strain West Pac 74 or DV2 strain S16803 was then added, calculated so as to obtain an average of 100 lytic plaques per well, and the plates were incubated for 30 min. at 37° C. with the virus/peptide mixture. After the incubation the cells were washed twice, received the addition of MEM medium supplemented with non-essential amino acids, 1% fetal calf serum, 1% CMC, and finally were incubated for 5 days at 37° C. under a CO2 atmosphere. (B) Inhibitory effect of the peptides at 100 μMol/L. NRpep: Non-related peptide. Data on the sequence of the peptides 3H5pept (SEQ ID. 27), pepDIII-1 (SEQ ID. 28), HIII2CL (SEQ ID. 5) and HIII3CL (SEQ ID. 7), as well as on the region they span on DIII from DV, can be obtained from FIG. 11. The calculation of the inhibition percentages is described in Materials and Methods. (C) Inhibition of DV2 infection by using varying peptide concentrations. The viral plaques were visualized by staining with Naphtol Blue Black. Cell control: Untreated cells. Virus control: Cells incubated with the virus, but without peptide.
as §1

DV1 = assay type: cell-based, dengue virus; settings: peptides 0.1 mg/ml; Vero cells
Experimental: as §2, §1

[1] = target: T1, DIIIE2J (DIII from protein E of DV2) (Dengue virus type 2, UniProt P07564); assay: Direct binding between DIIIE2J and A2M measured by Biacore; design: species or system DV2 strain Jamaica 1409; settings: A2M 0.3 to 3 μMol/L
T1 construct: made in house; host or cells: Escherichia coli BL21(DE3)
T1 sequence (P07564 568-687, looked up, natural form): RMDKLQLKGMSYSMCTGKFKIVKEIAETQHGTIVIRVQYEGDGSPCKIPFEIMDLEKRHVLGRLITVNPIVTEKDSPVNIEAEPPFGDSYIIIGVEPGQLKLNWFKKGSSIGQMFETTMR
Experimental: FIG. 6. Direct binding between DIIIE2J and A2M, measured by Biacore. Response curves obtained during and after the injection of (B) Monoclonal antibodies against DV serotype 2 (3H5) and against all FV (4G2); (C) Polyclonal mouse antibody preparations obtained by immunization with DV1 and DV2, including pre-immune sera and (D) A2M dilutions, at concentrations from 0.3 μMol/L to 3 μMol/L. The run was performed on PBS pH 7.4 at 25° C. The different A2M dilutions were loaded at a flow of 5 μL/min for 20 min. The response is represented in resonance units (RU) corrected for unspecific binding using the response from the channel without immobilized protein (less than 5% of the specific signal).
A cm5 chip (Biacore, Sweden) was used for the covalent immobilization of the DIIIE2J and LRP1 proteins. The immobilization was carried out at 25° C., with a flow of 5 μL/min and using HBS (Biacore, Sweden) as running buffer. The surface of the chip was activated by loading 35 μL of 0.2 Mol/L […] (EDC) and 0.05 Mol/L N-hydroxysuccinimide (NHS). Afterwards the proteins, dissolved in 10 mM sodium acetate buffer pH 4.5, were loaded into the system. At the end of the immobilization, 35 μL of 1 M ethanolamine pH 8 were loaded into the system in order to block any remaining free activated groups. The channel to be used as a negative control in each case received only the activating injections with the EDC:NHS solution and the blocking with ethanolamine, employing the same flow and injection volume. The results were analyzed using the BIAevaluation ver. 4.1 software application package (Biacore, Sweden).
In order to estimate the strength of the interaction between DIIIE2J and human A2M, 1600 RU of DIIIE2J were covalently immobilized on a CM5 chip (channel 1, FIG. 6A) (Biacore, Sweden), following the procedure described in the Materials and Methods section. […]

Row | Molecule | inhibition level, DV3 (DV3; 0.1 mg/ml) | degree of reduction of the number of viral plaques, DV3 (DV3) | degree of reduction of the number of viral plaques, DV4 (DV4) | degree of reduction of the number of viral plaques, DV2 (DV2) | degree of reduction of the number of viral plaques, DV1 (DV1) | nature of the interaction between both proteins [1] | Kd ([1]; immobilized DIIIE2J, PBS pH 7.4 at 25° C., read-out: apparent Kd)
1 | CC[C@H](C)[C@@H]1NC(=O)[C@H](Cc2ccc(O)cc2)NC(=O)[C@H](CO)NC(=O)[C@@H](N)CSSC[C@@H](C(N)=O)NC(=O)[C@H](Cc2c[nH]c3ccccc23)NC(=O)[C@H](Cc2c[nH]cn2)NC(=O)[C@H](CC(C)C)NC(=O)[C@H]([C@@H](C)O)NC(=O)[C@H](CC(C)C)NC(=O)[C@H](C)NC(=O)[C@H](CO)NC(=O)[C@H](CC(N)=O)NC(=O)CNC(=O)[C@H](C(C)C)NC(=O)CNC(=O)[C@H]([C@@H](C)CC)NC(=O)[C@H](C(C)C)NC1=O [HDIII4CL] (H-CSYIVIGVGNSALTLHWC-NH2; disulfide 1-18; N-terminus assumed) | ≤ 50% | +/− (10-50% decrease in the number of plaques) | + (50% or higher decrease) | + (50% or higher decrease) | + (50% or higher decrease) | – | –
2 | HDIII1CL: cyclic synthetic peptide based on the FG beta hairpin of DIII of protein E from DV1, SEQ ID. 6 (CSYIVVGAGEKALKLSWC-NH2; disulfide 1-18 (inferred)) | – | + (50% or higher decrease) | + (50% or higher decrease) | + (50% or higher decrease) | + (50% or higher decrease) | – | –
3 | A2M: human Alfa 2-macroglobulin purified from human plasma, Seq. ID. 2 (protein, listed as Homo sapiens) MGKNKLLHPSLVLLLLVLLPTDASVSGKPQYMVLVPSLLHTETTEKGCVLLSYLNETVTVSASLESVRGNRSLFTDLEAENDVLHCVAFAVPKSSSNEEVMFLTVQVKGPTQEFKKRTTVMVKNEDSLVFVQTDKSIYKPGQTVKFRVVSMDENFHPLNELIPLVYIQDPKGNRIAQWQSFQLEGGLKQFSFPLSSEPFQGSYKVVVQKKSGGRTEHPFTVEEFVLPKFEVQVTVPKIITILEEEMNVSVCGLYTYGKPVPGHVTVSICRKYSDASDCHGEDSQAFCEKFSGQLNSHGCFYQQVKTKVFQLKRKEYEMKLHTEAQIQEEGTVVELTGRQSSEITRTITKLSFVKVDSHFRQGIPFFGQVRLVDGKGVPIPNKVIFIRGNEANYYSNATTDEHGLVQFSINTTNVMGTSLTVRVNYKDRSPCYGYQWVSEEHEEAHHTAYLVFSPSKSFVHLEPMSHELPCGHTQTVQAHYILNGGTLLGLKKLSFYYLIMAKGGIVRTGTHGLLVKQEDMKGHFSISIPVKSDIAPVARLLIYAVLPTGDVIGDSAKYDVENCLANKVDLSFSPSQSLPASHAHLRVTAAPQSVCALRAVDQSVLLMKPDAELSASSVYNLLPEKDLTGFPGPLNDQDDEDCINRHNVYINGITYTPVSSTNEKDMYSFLEDMGLKAFTNSKIRKPKMCPQLQQYEMHGPEGLRVGFYESDVMGRGHARLVHVEEPHTETVRKYFPETWIWDLVVVNSAGVAEVGVTVPDTITEWKAGAFCLSEDAGLGISSTASLRAFQPFFVELTMPYSVIRGEAFTLKATVLNYLPKCIRVSVQLEASPAFLAVPVEKEQAPHCICANGRQTVSWAVTPKSLGNVNFTVSAEALESQELCGTEVPSVPEHGRKDTVIKPLLVEPEGLEKETTFNSLLCPSGGEVSEELSLKLPPNVVEESARASVSVLGDILGSAMQNTQNLLQMPYGCGEQNMVLFAPNIYVLDYLNETQQLTPEVKSKAIGYLNTGYQRQLNYKHYDGSYSTFGERYGRNQGNTWLTAFVLKTFAQARAYIFIDEAHITQALIWLSQRQKDNGCFRSSGSLLNNAIKGGVEDEVTLSAYITIALLEIPLTVTHPVVRNALFCLESAWKTAQEGDHGSHVYTKALLAYAFALAGNQDKRKEVLKSLNEEAVKKDNSVHWERPQKPKAPVGHFYEPQAPSAEVEMTSYVLLAYLTAQPAPTSEDLTSATNIVKWITKQQNAQGGFSSTQDTVVALHALSKYGAATFTRTGKAAQVTIQSSGTFSSKFQVDNNNRLLLQQVSLPELPGEYSMKVTGEGCVYLQTSLKYNILPEKEEFPFALGVQTLPQTCDEPKAHTSFQISLSVSYTGSRSASNMAIVDVKMVSGFIPLKPTVKMLERSNHVSRTEVSSNHVLIYLDKVSNQTLSLFFTVLQDVPVRDLKPAIVKVYDYYETDEFAIAEYNAPCSKDLGNA | – | – | – | – | – | saturable and reversible | ~100 nM
